Like-named read-outs stand apart in the source and are kept apart here.
Experiments:
[1] = in human blood; cited from earlier work
[2] = target: purified pig heart adenosine kinase (Sus scrofa, UniProt A0A5G2R0F5); assay: Inhibition of adenosine kinase activity; type: biochemical
Method: Inhibition of enzyme activity was determined using a 0.1 ml assay mixture containing 50 mM Tris-maleate, pH 7.0, 0.1% (w/v) BSA, 1 mM ATP, 1 mM MgCl2, 0.5 µM [U-^14C] adenosine (500 mCi/mmol) and 0.1 µg of purified pig heart adenosine kinase. Different concentrations of the test compounds were incubated in the assay mixture for 20 min at 37°C. From each reaction mixture, 20 µl portions were removed and spotted on 2 cm^2 pieces of Whatman DE81 filter paper. The papers were then washed to remove [^14C] adenosine in 1mM ammonium formate followed by deionized water and finally 95% ethanol. The papers were dried, and [^14C]AMP measured by scintillation counting. Activities were determined from the amount of [^14C]AMP formed. This is a suitable in vitro test method for determining adenosine kinase enzyme inhibition activity.

[3] = test system: Isolated guinea pig hearts; assay: Functional recovery in isolated hearts after low flow ischemia (Langendorff); conditions: Conc. 0.3 ( M) in perfusion buffer; for Functional Recovery (% preischemic LVDP): 45 minutes low flow ischemia, 30 minutes reperfusion
Method: The ability of a number of adenosine kinase inhibitors to improve the recovery of post-ischemic function was examined in an isolated guinea pig heart model.
Isolated guinea pig hearts were cannulated via the ascending aorta and attached to a perfusion apparatus according to the method of Langendorff. The hearts were perfused at a constant pressure of 60 cm of H2O with a modified Krebs-Hanseleit buffer (pH 7.4) at 37°C. Left ventricular developed pressures (LVDP) were monitored continuously using a latex balloon attached to a pressure transducer. Coronary flows were measured gravimetrically by timed collection of pulmonary effluent. Following equilibration of the hearts for a period of 30 minutes, the hearts were subjected to 45 minutes of low flow ischemia, by reducing the perfusion pressure to 10 cm of H2O, and then reperfused for 30 minutes by restoring the pressure to its. original level (60 cm of H2O). The adenosine kinase inhibitors GP-1-238, GP-1-515 and GP1-547 were added to the perfusion buffer at the final concentrations specified. […] TABLE A

guinea pig ileum = assay: Inhibition of contraction in isolated ileum; conditions: electrically stimulated; reversal by 8SPT and ADA; Figure 3
Method: The ability of adenosine kinase inhibition to affect stimulated contraction of muscle strips from the isolated ileum has been investigated.
Parallel platinum electrodes were used to deliver electrical current at 1 minute intervals at a voltage adequate to induce contraction of 90% of maximal. The adenosine kinase inhibitors, GP-1-515 or GP-1-547 were added to the tissue baths at different concentrations, with or without either the adenosine receptor antagonist, 8-sulphophenyltheophylline (8SPT) or adenosine deaminase (ADA), and the effects on contraction monitored.

adenosine kinase = adenosine kinase (Bos taurus, UniProt A0AAA9TET8); assay: Adenosine kinase inhibition in intact cells; type: cell-based
adenosine kinase, sequence (A0AAA9TET8 1-345): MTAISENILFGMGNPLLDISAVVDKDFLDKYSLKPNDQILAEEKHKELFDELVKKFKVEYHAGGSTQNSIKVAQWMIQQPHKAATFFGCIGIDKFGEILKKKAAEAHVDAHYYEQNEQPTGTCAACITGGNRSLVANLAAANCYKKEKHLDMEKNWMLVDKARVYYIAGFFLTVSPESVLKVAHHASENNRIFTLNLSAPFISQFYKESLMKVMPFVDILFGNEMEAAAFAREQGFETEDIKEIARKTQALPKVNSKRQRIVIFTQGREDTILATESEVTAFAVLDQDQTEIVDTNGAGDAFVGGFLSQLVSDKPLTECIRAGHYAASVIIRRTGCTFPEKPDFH
Method: Inhibition of adenosine kinase in intact cells was determined from the amount of incorporation of radioisotope from adenosine into the adenylates (AMP, ADP and ATP) in the presence of adenosine deaminase inhibition. Capillary endothelial cells from bovine heart were incubated for 60 min. With 20 µM 2'-deoxycoformycin, a potent adenosine deaminase inhibitor. Different concentrations of the test compounds were then added to the cells and incubated for 15 min. after which 5 µM [^3H]adenosine was added and the cells incubated for a further 15 min. The media was then discarded and the cells were treated with 50 µl 0.4 M perchloric acid, centrifuged and the supernatants neutralized with 100 µl alanine: freon (1:4). Radiosotope-labelled adenylates were separated by TLC on PEI cellulose plates developed in methanol:water (1:1) and incorporation of ^3H determined by scintillation counting.

rats = assay: Electroshock-induced seizures; type: in vivo; conditions: for No. of Animals (protected/tested): 1 hour before electroshock
Method: The ability of the adenosine kinase inhibitors to influence electroshock-induced seizures was also evaluated in an experimental model.
After 1 hour, corneal electrodes were applied to the eyes of each animal and an electrical stimulus of 160 mA delivered for 0.2 seconds. Animals were isolated in separate cages and observed for seizure. Abolition of the hindleg tonic extensor component is taken as the end point for this test and reflects ability of the compound to prevent seizure spread.

[4] = test system: human umbillical vein endothelial cells; assay: Inhibition of neutrophil adherence to endothelial cells; type: cell-based; conditions: fMLP-stimulated human neutrophils, 2 hours at 37°C; reversed by adenosine deaminase; Figure 2
Method: The ability of an adenosine kinase inhibitor to affect neutrophil adherence to fibroblasts and endothelial cells was evaluated in a cell culture model.
These incubations were carried out in the presence of fMLP-stimulated human neutrophils isolated from whole blood (1.25 x 10^6/ml) with or without adenosine deaminase (0.125 U/ml). At the end of the incubation, the medium was removed and the monolayers of fibroblasts or endothelial cells and adherent neutrophils were fixed by addition of formaldehyde (3.7%) and, after washing to remove non-adherent neutrophils, adherent neutrophils were stained with Weigart's hematoxylin and counted under a light microscope.

Male Swiss Webster mice = assay: PTZ-induced seizures; type: in vivo; conditions: IP at doses of 1, 5 and 10 mg/kg, 45 minutes before PTZ; Figure 4 A
Method: The ability of selected adenosine kinase inhibitors to influence PTZ-induced seizures was evaluated in an experimental animal model.
[…] After injections of the convulsant, animals were isolated in separate cages and observed for the onset of seizure.

anesthetized rats = conditions: cited from earlier work
rat brain slices = conditions: cited from earlier work
mice = conditions: cited from earlier work
guinea pig brain slices = conditions: cited from earlier work
[5] = test system: platelet-induced coronary thrombosis; assay: Canine model of platelet-induced coronary thrombosis (Folts, cyclic flow reductions); type: in vivo
Method: GP-1-515 was tested in a canine model of platelet-induced coronary thrombosis (Folts, J., Circulation, 1991, 83[Suppl. IV]:IV-3-IV-14). In this model, platelets cyclically aggregate and embolize causing cyclic flow reductions (CFRs) that are quantitated by the frequency and the change in coronary blood flow from low point to peak with each cycle. […] TABLE C

[6] = target: T1, calf intestinal mucosa adenosine deaminase (Bos taurus, UniProt P56658); assay: Inhibition of adenosine deaminase activity; type: biochemical; conditions: 10 min at 37°C
T1 construct: 0.002 units of calf intestinal mucosa adenosine deaminase; from tissue; host or cells: calf intestinal mucosa
T1 sequence (P56658 1-363): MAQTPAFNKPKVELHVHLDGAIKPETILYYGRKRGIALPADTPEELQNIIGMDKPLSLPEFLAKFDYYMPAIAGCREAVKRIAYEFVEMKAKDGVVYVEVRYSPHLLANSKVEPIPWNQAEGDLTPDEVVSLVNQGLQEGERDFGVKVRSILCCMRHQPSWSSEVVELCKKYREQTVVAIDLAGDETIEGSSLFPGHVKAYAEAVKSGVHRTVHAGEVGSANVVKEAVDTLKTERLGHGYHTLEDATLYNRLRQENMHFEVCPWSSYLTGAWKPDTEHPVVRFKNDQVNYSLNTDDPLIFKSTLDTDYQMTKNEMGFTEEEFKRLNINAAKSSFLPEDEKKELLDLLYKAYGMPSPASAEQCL
Method: Different concentrations of the test compounds were incubated in the assay mixture for 10 min at 37°C. The reaction was monitored continuously for oxidation of NADH from the change in absorbance at 340nm.

Anesthetized male dogs = assay: Preclinical model of stable angina (pacing-induced ischemia); type: in vivo
Method: GP-1-515, was evaluated for its ability to prevent cumulative cardiac dysfunction associated with repeated episodes of pacing-induced ischemia.
Anesthetized male dogs were instrumented to measure regional myocardial wall thickening during right atrial pacing (Young & Mullane, Am. J. Physio., 1991, 261:1570-1577). Animals were subjected to six repeated episodes of pacing. A continuous IV infusion of […] of GP-1-515 or saline (control) -was administered post pace #1. […] TABLE B

A1 receptor = target: T2, A1 receptor (Homo sapiens, UniProt P30542); assay: A1 receptor binding affinity ([3H]CHA, neuronal membrane); conditions: 1 nM [3H]CHA, 60 min at 37°C
T2 construct: 1 nM [^3H]CHA and 0.5 mg of neuronal membrane; from tissue
T2 sequence (P30542 1-326): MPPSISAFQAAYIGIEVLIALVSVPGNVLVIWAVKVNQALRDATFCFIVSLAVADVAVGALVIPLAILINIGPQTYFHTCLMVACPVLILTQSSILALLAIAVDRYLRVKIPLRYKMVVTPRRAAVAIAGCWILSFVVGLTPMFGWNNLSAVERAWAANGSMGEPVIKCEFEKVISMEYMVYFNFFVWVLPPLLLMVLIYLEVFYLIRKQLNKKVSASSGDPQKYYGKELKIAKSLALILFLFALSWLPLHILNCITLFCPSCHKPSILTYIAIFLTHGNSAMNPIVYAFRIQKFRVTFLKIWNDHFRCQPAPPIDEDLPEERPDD
Source text: The reaction was stopped and unbound [^3H]CHA removed by rapid filtration through Whatman GF/B filters. The filter papers were then solubilized and bound [^3H]CHA determined by scintillation counting.

rat cardiomyocytes = conditions: inhibition of adenosine deaminase alone; cited from earlier work
[7] = read-out: IC50 in the adenosine kinase inhibition assay

purified pig heart adenosine kinase, sequence (A0A5G2R0F5 1-362): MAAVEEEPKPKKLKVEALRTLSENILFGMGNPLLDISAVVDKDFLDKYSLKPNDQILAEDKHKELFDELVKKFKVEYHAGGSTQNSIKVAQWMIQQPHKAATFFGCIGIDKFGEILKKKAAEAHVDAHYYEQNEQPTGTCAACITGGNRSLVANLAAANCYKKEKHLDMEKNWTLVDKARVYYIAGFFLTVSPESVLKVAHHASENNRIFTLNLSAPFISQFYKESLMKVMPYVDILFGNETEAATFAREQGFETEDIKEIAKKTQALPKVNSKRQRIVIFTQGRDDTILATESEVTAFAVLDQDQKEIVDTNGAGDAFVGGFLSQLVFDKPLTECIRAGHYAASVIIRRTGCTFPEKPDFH

In the case of Nc1ncnc2c1ncn2[C@@H]1O[C@H](CO)[C@@H](O)[C@H]1O [adenosine], the half life [1] is given as under 1 s.

For NC[C@H]1O[C@@H](n2cc(Br)c3c(Cl)ncnc32)[C@H](O)[C@@H]1O [GP-1-608, 7-(5-Amino-5-deoxy-1-β-D-ribofuranosyl)-5-bromo-4-chloropyrrolo [2,3-d]pyrimidine], the IC50 [2, 7] was under 0.01 µM.

With OC[C@H]1O[C@@H](n2nc(-c3ccccc3)c3c(Nc4ccccc4)ncnc32)[C@H](O)[C@@H]1O [GP-1-695] the IC50 [2, 7] was under 0.01 µM.

In the case of NC[C@H]1O[C@@H](n2nc(I)c3c(N)ncnc32)[C@H](O)[C@@H]1O [GP-1-547], the “Preischemic Flow” value [3] is reported as 6.2 ± 0.3 mL/min/g, the “Functional Recovery (% preischemic LVDP)” value [3] is reported as 79.0 ± 3.1 % preischemic LVDP and the “contraction of longitudinal muscle of the ileum” value (guinea pig ileum) is reported as “Inhibition of contraction”.

Molecule [N-]=[N+]=NC[C@H]1O[C@@H](n2nc(-c3ccccc3)c3c(Nc4ccccc4)ncnc32)[C@H](O)[C@@H]1O [GP-1-667] has an IC50 [2, 7] of under 0.01 µM.

Work on C[C@H]1O[C@@H](n2nc(-c3ccccc3)c3c(Nc4ccccc4)ncnc32)[C@H](O)[C@@H]1O [GP-1-665] yielded an IC50 (adenosine kinase; read-out: IC50 in the adenosine kinase inhibition assay in intact cells; Capillary endothelial cells from bovine heart, 20 µM 2'-deoxycoformycin) of 0.0045 µM and an IC50 [2, 7] of under 0.01 µM.

With C[C@H]1O[C@@H](n2cc(I)c3c(N)ncnc32)[C@H](O)[C@@H]1O [GP-1-456, 5'-deoxy-5-iodotubercidin] the “No. of Animals (protected/tested)” value (rats; 0.05 mg/kg orally) was 1/8, the “No. of Animals (protected/tested)” value (rats; 0.10 mg/kg orally) was 2/8 and the ED50 (rats; Rattus norvegicus, po, 1 h, orally, rats, from the data of Table E, read-out: ED50 for protection of electroshock-induced seizures) was 0.18 mg/kg. For the same molecule, the “neutrophil adhesion to endothelial cells” value [4] was “inhibit neutrophil adhesion to endothelial cells”, the PTZ induced seizures (Male Swiss Webster mice) was “dose-dependent inhibition” and the “blood pressure and heart rate” value (anesthetized rats) was “decrease blood pressure and heart rate”. The adenosine uptake (rat brain slices) was “inhibited”, the body temperature (mice) was “hypothermia” and the “flaccidity and spontaneous locomotor activity” value (mice) was “pronounced general flaccidity and much-reduced spontaneous locomotor activity”. The adenosine uptake (guinea pig brain slices) was “inhibited”.

In the case of NC[C@H]1O[C@@H](n2nc(Br)c3c(N)ncnc32)[C@H](O)[C@@H]1O [GP-1-515], the “(N abolished)/(N total)” value ([5]; 0.03 (dose, unit not given)) is reported as 1/8, the “CFR (D flow)” value ([5]; 0.03 (dose, unit not given)) is reported as 10.1 ± 2.6 (n=7) and the “CFR (freq.)” value ([5]; 0.03 (dose, unit not given)) is reported as 3.0 ± 0.6 (n=7). For the same molecule, the “(N abolished)/(N total)” value ([5]; 0.1 (dose, unit not given)) was 3/8, the “CFR (D flow)” value ([5]; 0.1 (dose, unit not given)) was 11.0 ± 2.1 (n=5) and the “CFR (freq.)” value ([5]; 0.1 (dose, unit not given)) was 3.4 ± 0.8 (n=5). The “(N abolished)/(N total)” value ([5]; 0.3 (dose, unit not given)) was 3/8, the “CFR (D flow)” value ([5]; 0.3 (dose, unit not given)) was 14.1 ± 1.9 (n=5) and the “CFR (freq.)” value ([5]; 0.3 (dose, unit not given)) was 4.2 ± 0.6 (n=5). The “CFRs abolished (animals)” value ([5]; summary) was 3 of 8, the “Preischemic Flow” value [3] was 6.5 ± 0.3 mL/min/g and the “Functional Recovery (% preischemic LVDP)” value [3] was 79.0 ± 3.4 % preischemic LVDP. For the same molecule, the IC50 [6] was over 1000 µM, the “% of Non-Ischemic Wall Thickening” value (Anesthetized male dogs; Pace # 1 (infusion started post pace #1)) was 39.8 ± 3.2% and the “% of Non-Ischemic Wall Thickening” value (Anesthetized male dogs; Pace # 2, continuous IV infusion of 1 g/kg/min) was 43.6 ± 12.0%. For the same molecule, the “% of Non-Ischemic Wall Thickening” value (Anesthetized male dogs; Pace # 3, continuous IV infusion of 1 g/kg/min) was 34.0 ± 19.0%, the “% of Non-Ischemic Wall Thickening” value (Anesthetized male dogs; Pace # 4, continuous IV infusion of 1 g/kg/min) was 50.5 ± 21.3% and the “% of Non-Ischemic Wall Thickening” value (Anesthetized male dogs; Pace # 5, continuous IV infusion of 1 g/kg/min) was 75.6 ± 19.4%. The “% of Non-Ischemic Wall Thickening” value (Anesthetized male dogs; Pace # 6, continuous IV infusion of 1 g/kg/min) was 62.6 ± 17.1%, the IC50 (A1 receptor) was over 100 µM and the IC50 (adenosine kinase; Capillary endothelial cells from bovine heart, 20 µM 2'-deoxycoformycin; read-out: IC50 in the adenosine kinase inhibition assay in intact cells) was 0.009 µM. The “contraction of longitudinal muscle of the ileum” value (guinea pig ileum) was “Inhibition of contraction” and the IC50 [2] was under 0.01 µM.

With NC[C@H]1O[C@@H](n2nc(-c3ccccc3)c3c(Nc4ccccc4)ncnc32)[C@H](O)[C@@H]1O [GP-1-704] the IC50 [2, 7] was under 0.01 µM.

For CNc1ncnc2c1ncn2[C@@H]1O[C@H](CN)[C@@H](O)[C@H]1O [GP-1-272], the “neutrophil adhesion to endothelial cells” value [4] was “inhibit neutrophil adhesion to endothelial cells”.

For OC[C@H]1O[C@@H](n2cnc3c2N=CNC[C@H]3O)C[C@@H]1O [2'-deoxycoformycin], the “adenosine release from the cells” value (rat cardiomyocytes) is given as “no effect on adenosine release”.

From EP0496617B1, “Adenosine kinase inhibitors” (priority 1991, dated 1992)
